PubChem BioAssay AID248 (DTP/NCI, 2004)
Where “and” joins values, the source holds several entries; their conditions need not be identical. Equal entries are not always repeated. Inconclusive results and toxic doses are left out. Cut-off read from the data, not from the text of the source: active = T/C of 150% or more; inactive = T/C below 125%.

System: L1210 leukemia ip in BDF1 mice, survival T/C
Experiment: NCI In Vivo Anticancer Drug Screen. Data for tumor model L1210 Leukemia (intraperitoneal) in B6D2F1 (BDF1) mice
Conditions: endpoint: mean survival time, higher = longer survival
Outline: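 Mice bearing the transplanted tumor received compound or vehicle. Survival of the treated group was divided by that of the vehicle-treated control group to give the ratio.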

[1] = dose: 100.0 mg/kg/injection, schedule: Q04DX002 (ip), vehicle: Klucel (hydroxypropylcellulose) (HPC)
[2] = dose: 200.0 mg/kg/injection, schedule: Q04DX002 (ip), vehicle: Klucel (hydroxypropylcellulose) (HPC)
[3] = dose: 400.0 mg/kg/injection, schedule: Q04DX002 (ip), vehicle: Klucel (hydroxypropylcellulose) (HPC)
[4] = dose: 100.0 mg/kg/injection, schedule: Q01DX009 (ip), vehicle: saline with Tween-80
[5] = dose: 100.0 mg/kg/injection, schedule: Q04DX003 (ip), vehicle: saline with Tween-80
[6] = dose: 100.0 mg/kg/injection, schedule: Q01DX001 (ip), vehicle: saline with Tween-80
[7] = dose: 100.0 mg/kg/injection, schedule: Q01DX009 (ip), vehicle: saline
[8] = dose: 200.0 mg/kg/injection, schedule: Q01DX009 (ip), vehicle: saline
[9] = dose: 50.0 mg/kg/injection, schedule: Q01DX001 (ip), vehicle: saline
[10] = dose: 100.0 mg/kg/injection, schedule: Q01DX001 (ip), vehicle: saline
[11] = dose: 200.0 mg/kg/injection, schedule: Q01DX001 (ip), vehicle: saline
[12] = dose: 400.0 mg/kg/injection, schedule: Q01DX001 (ip), vehicle: saline
[13] = dose: 100.0 mg/kg/injection, schedule: Q04DX003 (ip), vehicle: saline
[14] = dose: 200.0 mg/kg/injection, schedule: Q04DX003 (ip), vehicle: saline
[15] = dose: 100.0 mg/kg/injection, schedule: Q01DX009 (ip), vehicle: Klucel (hydroxypropylcellulose) (HPC)

Measured: T/C

COC(=O)C(=O)CC(=O)c1cccc(OC)c1
inactive: dose: 25.0 mg/kg/injection, schedule: Q04DX002 (ip), vehicle: Klucel (hydroxypropylcellulose) (HPC) 93 % of control | dose: 50.0 mg/kg/injection, schedule: Q04DX002 (ip), vehicle: Klucel (hydroxypropylcellulose) (HPC) 100 % of control | [1] 107 % of control and 123 % of control | [2] 93 % of control and 100 % of control | [3] 103 % of control

C=COCCCCOC=C
inactive: dose: 100.0 mg/kg/injection, schedule: Q04DX003 (ip), vehicle: Klucel (hydroxypropylcellulose) (HPC) 113 % of control | dose: 200.0 mg/kg/injection, schedule: Q04DX003 (ip), vehicle: Klucel (hydroxypropylcellulose) (HPC) 105 % of control | dose: 400.0 mg/kg/injection, schedule: Q04DX003 (ip), vehicle: Klucel (hydroxypropylcellulose) (HPC) 105 % of control

N#CC(C(N)=O)c1ccccc1 (stereo not drawn)
inactive: dose: 25.0 mg/kg/injection, schedule: Q01DX009 (ip), vehicle: saline with Tween-80 86 % of control | dose: 25.0 mg/kg/injection, schedule: Q04DX003 (ip), vehicle: saline with Tween-80 99 % of control | dose: 50.0 mg/kg/injection, schedule: Q01DX009 (ip), vehicle: saline with Tween-80 94 % of control | dose: 50.0 mg/kg/injection, schedule: Q04DX003 (ip), vehicle: saline with Tween-80 100 % of control | [4] 90 % of control | [5] 98 % of control and 100 % of control

CN(CCS(=O)(=O)O)/N=C/c1ccc2c(c1)OCO2
inactive: dose: 25.0 mg/kg/injection, schedule: Q01DX009 (ip), vehicle: alcohol 112 % of control | dose: 50.0 mg/kg/injection, schedule: Q01DX009 (ip), vehicle: alcohol 102 % of control | [6] 92 % of control | dose: 100.0 mg/kg/injection, schedule: Q01DX009 (ip), vehicle: alcohol 101 % of control | dose: 150.0 mg/kg/injection, schedule: Q01DX009 (ip), vehicle: Klucel (hydroxypropylcellulose) (HPC) 94 % of control | dose: 225.0 mg/kg/injection, schedule: Q01DX009 (ip), vehicle: Klucel (hydroxypropylcellulose) (HPC) 97 % of control

CC12C3CCC(C3)C1(O)C2S(=O)(=O)N1CCCCC1 (stereo not drawn)
inactive: [7] 110 % of control | [8] 104 % of control

NC(=S)N/N=C\c1ccc(/C=N/NC(N)=S)cc1
inactive: [9] 90 % of control | [10] 93 % of control | [11] 90 % of control

COC(=S)S
inactive: [10] 108 % of control | [11] 108 % of control | [12] 105 % of control

Cc1csc2[nH]c(=O)[nH]c(=O)c12
inactive: dose: 100.0 mg/kg/injection, schedule: Q01DX009 (ip), vehicle: water 104 % of control | dose: 100.0 mg/kg/injection, schedule: Q04DX003 (ip), vehicle: water 112 % of control | dose: 200.0 mg/kg/injection, schedule: Q04DX003 (ip), vehicle: water 115 % of control | dose: 400.0 mg/kg/injection, schedule: Q01DX009 (ip), vehicle: water 86 % of control | dose: 400.0 mg/kg/injection, schedule: Q04DX003 (ip), vehicle: water 118 % of control

Cc1cccc(C(=O)C(O)(c2ccccc2)C2CCCCC2=O)c1 (stereo not drawn)
inactive: [1] 100 % of control | [2] 92 % of control | [3] 114 % of control

O=C1OC(=O)C2C3CC(C(Br)C3Br)C12 (stereo not drawn)
inactive: [5] 102 % of control | dose: 200.0 mg/kg/injection, schedule: Q04DX003 (ip), vehicle: saline with Tween-80 98 % of control | dose: 400.0 mg/kg/injection, schedule: Q04DX003 (ip), vehicle: saline with Tween-80 101 % of control

COc1ccc(NC(C)=O)cc1OC
inactive: dose: 100.0 mg/kg/injection, schedule: Q04DX002 (ip), vehicle: saline 95 % of control | dose: 200.0 mg/kg/injection, schedule: Q04DX002 (ip), vehicle: saline 98 % of control | dose: 400.0 mg/kg/injection, schedule: Q04DX002 (ip), vehicle: saline 92 % of control

CC(C)(C)C1COP(=O)(C(C)(C)C)OC1 (stereo not drawn)
inactive: dose: 12.5 mg/kg/injection, schedule: Q04DX003 (ip), vehicle: Klucel (hydroxypropylcellulose) (HPC) 94 % of control | dose: 25.0 mg/kg/injection, schedule: Q04DX003 (ip), vehicle: Klucel (hydroxypropylcellulose) (HPC) 96 % of control

C[N+](C)(C)CCOC(=O)c1cccc(CBr)c1
inactive: dose: 50.0 mg/kg/injection, schedule: Q01DX009 (ip), vehicle: saline 92 % of control | [7] 95 % of control | [13] 98 % of control | [8] 93 % of control | [14] 105 % of control

CC(=O)O[C@]1(C(C)=O)CC[C@H]2[C@@H]3C[C@H](F)C4=CC(=O)CC[C@]4(C)[C@H]3CC[C@@]21C
inactive: [15] 98 % of control | dose: 100.0 mg/kg/injection, schedule: Q04DX003 (ip), vehicle: other 93 % of control | dose: 200.0 mg/kg/injection, schedule: Q01DX009 (ip), vehicle: Klucel (hydroxypropylcellulose) (HPC) 97 % of control | dose: 200.0 mg/kg/injection, schedule: Q04DX003 (ip), vehicle: other 98 % of control | dose: 400.0 mg/kg/injection, schedule: Q01DX009 (ip), vehicle: Klucel (hydroxypropylcellulose) (HPC) 101 % of control | dose: 400.0 mg/kg/injection, schedule: Q04DX003 (ip), vehicle: other 100 % of control

NC(=O)OCC1OC(n2cnc3c(=O)[nH]c(N)nc32)C(O)C1O (stereo not drawn)
inactive: dose: 25.0 mg/kg/injection, schedule: Q01DX009 (ip), vehicle: Klucel (hydroxypropylcellulose) (HPC) 94 % of control | dose: 50.0 mg/kg/injection, schedule: Q01DX009 (ip), vehicle: Klucel (hydroxypropylcellulose) (HPC) 98 % of control | dose: 100.0 mg/kg/injection, schedule: Q01DX005 (ip), vehicle: saline 105 % of control | [15] 94 % of control | dose: 200.0 mg/kg/injection, schedule: Q01DX005 (ip), vehicle: saline 92 % of control

Cc1nn(C2CC(O)C(O)C(CO)O2)c(=O)[nH]c1=O (stereo not drawn)
inactive: [9] 93 % of control | [10] 96 % of control | [7] 92 % of control | [11] 104 % of control | [8] 95 % of control | [12] 98 % of control | dose: 400.0 mg/kg/injection, schedule: Q01DX009 (ip), vehicle: saline 98 % of control

COC(=O)/C=C(\C)Oc1cc(Cl)c(Cl)cc1Cl
inactive: [4] 94 % of control | dose: 200.0 mg/kg/injection, schedule: Q01DX009 (ip), vehicle: saline with Tween-80 97 % of control | dose: 400.0 mg/kg/injection, schedule: Q01DX009 (ip), vehicle: saline with Tween-80 97 % of control

CCOC(=O)Nc1cc(NCCCCc2ccccc2)c(N)c(N)n1
inactive: [6] 101 % of control | dose: 200.0 mg/kg/injection, schedule: Q01DX001 (ip), vehicle: saline with Tween-80 102 % of control

CCSCCO
inactive: [13] 92 % of control | [14] 102 % of control | dose: 400.0 mg/kg/injection, schedule: Q04DX003 (ip), vehicle: saline 100 % of control

COC(=O)C(Br)C(Br)c1cc(OC)c(OC)c(OC)c1 (stereo not drawn)
inactive: dose: 100.0 mg/kg/injection, schedule: Q01DX001 (ip), vehicle: carboxymethylcellulose (CMC) 89 % of control | dose: 200.0 mg/kg/injection, schedule: Q01DX001 (ip), vehicle: carboxymethylcellulose (CMC) 93 % of control | dose: 400.0 mg/kg/injection, schedule: Q01DX001 (ip), vehicle: carboxymethylcellulose (CMC) 103 % of control
